According to the NIST ThermoML archive (doi:10.1016/j.fluid.2005.05.015):
± gives the expanded uncertainty stated by the source.

Conditions: Crystal 1; visual observation

Normal melting temperature: 268.30 ± 1 °C
SMILES: CC[N+](C)(C)CCO.[Br-] [ethyl(2-hydroxyethyl)dimethylammonium bromide]
